In data set [1] the test system is HMGB1. Nature of the data set: Immunofluorescence staining of HMGB1 in GBM tissue. Particulars: GBM mice, daily i.v. GL equivalent 50 mg kg^−1, 14 days (control 15.3 ± 1.7). It is filed as in vivo, Balb/c nude mice. The source says:
(§1) After two weeks, mice were sacrificed, and the brains were harvested and fixed with paraformaldehyde (4%). Then, tissue processing was automatically conducted using a Leica TP1020 semi-enclosed Benchtop Tissue Processor (Leica Biosystems, Wetzlar, Hesse, Germany), followed by embedding in paraffin blocks. Paraffin blocks were sliced into 5 μm thick slices using a Leica RM2145 Microtome (Leica Biosystems). Nissl staining was used to stain brain tissue slides with pre-warmed 0.1% Cresyl Violet Stain Solution (Abcam). TUNEL assays were conducted following the manufacturer’s instructions. For immunofluorescence staining; anti-HMGB1 antibody (Abcam), anti-Ki67 antibody (Abcam), anti-CD31 antibody (Abcam), and anti-VEGF antibody (Abcam) were used as primary antibodies, and goat anti-rabbit IgG-H&L Alexa Fluor 488 and goat anti-rabbit IgG H&L Alexa Fluor 647 were used as secondary antibodies, followed by DAPI mounting.

The nature of data set [2]: In vivo pharmacokinetics study.
Data set [3] has as its system orthotopic GBM (U87MG) mice model. In words: TUNEL assay of GBM tissue. The format is in vivo, Balb/c nude mice. Particulars: daily i.v., 14 days (control 28.5 ± 4.8).
Description: as §1

Data set [4] is described as follows: GBM targeted-GL by HPLC in brain homogenate. Particulars: Balb/c nude, mouse, brain homogenate, iv; orthotopic GBM mice, i.v. GL equivalent 50 mg kg^−1, 10 min after injection; read-out: GL concentration detected in brain homogenate. It is filed as in vivo, orthotopic GBM model mice. How it is done:
Orthotopic GBM mice model mice were used for quantification of GBM targeting efficacy. The brain tissue was homogenized in deionized water at a 33.3 w/v (%) using a FastPrep-24 5G (MP biomedical, South Korea). The GL were added to pooled brain homogenate to obtain seven-point calibration curves with a range of 10–1000 ng mL^−1. Then, homogenate (50 μL) was mixed with methanol (100 μL). […] Thereafter, supernatants (100 μL) were mixed with mobile phase solution (900 μL), then filtered with a 0.22 μm syringe filter. Samples were collected in a 2 mL HPLC vial (Screw top vial, Waters, USA) and analyzed by HPLC at 254 nm. […] Mice were sacrificed and brain tissues were collected 10 min after the GL and Lf-GL injection. The samples for quantification were also conducted using the same process as GL standard preparation.

Data set [5] concerns orthotopic GBM (U87MG) mice model. Nature of the data set: Nissl staining: GBM/normal brain ratio. The format is in vivo, Balb/c nude mice. Particulars: daily i.v. GL equivalent 50 mg kg^−1, 14 days (control 37.5 ± 2.3).
Description: as §1

The test system of data set [6] is CD31. In words: Immunofluorescence staining of CD31 in GBM tissue. It is filed as in vivo, Balb/c nude mice. Particulars: GBM mice, daily i.v., 14 days (control MFI 14.7 ± 1.4).
Description: as §1

Data set [7] has as its system HMGB1. In words: HUVEC co-cultured with U87MG: HMGB1 ELISA. It is filed as cell-based, human. Particulars: HUVEC/U87MG co-culture, 100 μM GL equivalent, 24 h (control 217.8 ± 5.9). How it is done: To evaluate the inhibitory effect of Lf-GL on neovascularization in the tumor microenvironment in vitro, U87MG cells were seeded in the Transwell® insert chambers that were 6.5 mm in diameter and had 0.4 μm pore sizes (seeding density: 2.5 × 10^4 cells per well, Corning). HUVECs were seeded in the Transwell basal chamber (seeding density: 5.0 × 10^4 cells per well). GL, Lf, or Lf-GL (100 × 10^–6 M of GL equivalent concentration) were added to the insert chamber, and cells were incubated for 24 h. CCK-8 assay and HMGB1 ELISA were conducted at the basal chamber.
(In general: In an ELISA, binding on a coated surface is turned into a signal by an enzyme label.)

The target in data set [8] is HMGB1 box A. Details: method as in PMID 17462578. Particulars: previously reported; cited from earlier work.
The test system of data set [9] is U87MG human glioma cell line. In words: Cell viability test (CCK-8) in U87MG. The format is cell-based. Particulars: 50 μM GL equivalent, after 48 h treatment. How it is done: Cell viability was determined using a cell counting kit-8 (CCK-8). U87MG and HUVECs (seeding density: 0.75 × 10^4 cells per well) in 96-well culture plates were treated with GL, Lf, or Lf-GL (25 to 200 × 10^–6 M of GL equivalent concentration) and were incubated for different periods of time (24, 48, and 72 h). After washing with PBS, they were treated with a cell culture medium containing a CCK-8 assay kit (Abbkine) and were incubated at 37 °C and 5% CO2 for 2 h. Then, absorbance was measured at 450 nm in a micro-plate reader (VLBL00D0, Thermo Fisher Scientific). Results were quantified using Sigma Plot (Systat Software, USA). To determine the effect of extracellular HMGB1 in GBM and endothelial cell proliferation, U87MG and HUVECs were seeded in 96-well culture plates (seeding density: 0.75 × 10^4 cells per well) and GL, Lf, or Lf-GL (50 × 10^–6 M GL equivalent concentration) were added to cells with or without HMGB1 protein (U87MG: 0.1 μg mL^−1, and HUVEC: 1 μg mL^−1). Cells were incubated for different periods of time (24, 48, and 72 h).

Data set [10] concerns the target HMGB1 box B. Details: method as in PMID 17462578. Particulars: previously reported; cited from earlier work.
The mark [11] stands for this setting: Balb/c, mouse, plasma, iv, 50 mg/kg.

The values that follow come from paper PMC10200060, “Inhibition of DAMP actions in the tumoral microenvironment using lactoferrin-glycyrrhizin conjugate for glioblastoma therapy” (Biomaterials Research, 2023).

For the molecule `CC1(C)[C@@H](O[C@H]2O[C@H](C(=O)O)[C@@H](O)[C@H](O)[C@H]2O[C@@H]2O[C@H](C(=O)O)[C@@H](O)[C@H](O)[C@H]2O)CC[C@]2(C)[C@H]3C(=O)C=C4[C@@H]5C[C@@](C)(C(=O)O)CC[C@]5(C)CC[C@@]4(C)[C@]3(C)CC[C@@H]12` [GL, Glycyrrhizin], the “Mean fluorescence intensity (MFI) of HMGB1” value in data set [1] was determined as 6.2 ± 0.8. Also, in data set [2] (setting [11]), the AUC(0-t) was 102 µg·h/mL, the Cmax worked out at 254 ± 117 µg/mL, the MRT is 4.6 min and the Tmax was 1 min. Moreover, the half-life in data set [2] (Balb/c, mouse, plasma, iv, 50 mg/kg, T1/2, elimination half-life, mice, GL equivalent 50 mg kg^−1, plasma) is ~3.8 min. Further, the “Time after administration until cleared from / remaining in circulation” value in [2] (mice, i.v., GL equivalent 50 mg kg^−1) is reported as 150 min. The “TUNEL MFI” value in [3] turned out to be 16.3 ± 2.8. For the same molecule, the concentration at 10 min in data set [4] was 9.8 ± 2.3 µg/mL. Also, in data set [5], the GBM/normal brain ratio is 26.4 ± 5.7. Further, the “Decrease of MFI of CD31” value in [6] is “approximately 4 fold”. The “HMGB1 level in medium” value in data set [7] was 190.7 ± 19.0 ng/mL. Also, in [8], the Kd is 170 ± 3 µM. Besides, in data set [9], the “Number of cells, % of the original count” value came out at 93.4 ± 4.8%. Moreover, the Kd in data set [10] was 140 ± 3 µM.

One may read the AUC(0-t) as exposure summed from dosing to a finite time, without extrapolation to infinity. Higher therefore signals high exposure. The Cmax is the maximum level reached in the sampled fluid or tissue. What is called MRT is the average time that molecules of a dose stay in the body. In general, Tmax refers to the time at which the peak concentration occurs. The half-life is how long it takes for the measured level to halve. In general, Kd refers to the constant that tells how readily two partners part at equilibrium.
